Data published in patent publication US4728509A, “Aqueous liquid preparation” (Takeda Chemical Industries, Ltd., priority 1985, dated 1988).

Experiment: Solubility test of compound (a) with and without solubilizers (Experimental Example 1; HPLC of filtrate)
Settings: not given
Experimental: Solubility tests of the compound (a) (2-amino-7-isopropyl-5-oxo-5H-[1]-benzopyrano[2,3-b]pyridine-3-carboxylic acid) employing the solubilizers of this invention and, for comparison, employing various conventional solubilizers were performed.
The solubility was measured by the following manner:
An excess amount of the compound (a) was added to a given volume of a phosphate buffer, the mixture was sufficiently stirred, then the pH was adjusted to a given level, the mixture was allowed to stand at room temperature (25° C.) for 48 hours, the resultant was subjected to filtration with 0.45μ membrane filter, followed by measuring the concentration of the compound (a) in the filtrate by means of high performance liquid chromatography.
In the case of `NNC(=O)c1ccncc1` [isoniazid, reference compound], the “effect for improving the solubility of compound (a)” value (from here on “effect for improving the solubility”) was “some improvement”.
With `OC[C@H]1O[C@@H]2O[C@H]3[C@H](O)[C@@H](O)[C@@H](O[C@H]4[C@H](O)[C@@H](O)[C@@H](O[C@H]5[C@H](O)[C@@H](O)[C@@H](O[C@H]6[C@H](O)[C@@H](O)[C@@H](O[C@H]7[C@H](O)[C@@H](O)[C@@H](O[C@H]8[C@H](O)[C@@H](O)[C@@H](O[C@H]1[C@H](O)[C@H]2O)O[C@@H]8CO)O[C@@H]7CO)O[C@@H]6CO)O[C@@H]5CO)O[C@@H]4CO)O[C@@H]3CO` [β-cyclodextrin] the “effect for improving the solubility” value was “excellent effect”.
In the case of “Polyoxyethylene sorbitan monooleate [Tween 80, reference compound]”, the “effect for improving the solubility” value was “less effective”.
For polyvinylpyrrolidone, the “effect for improving the solubility” value was “excellent effect”.

Same assay, conditions: in words; substance used as solubilizer
With `O=C([O-])c1ccccc1O.[Na+]` [sodium salicylate, reference compound] the “effect for improving the solubility” value was “less effective”.
For `NC(N)=O` [urea, reference compound], the “effect for improving the solubility” value was “less effective”.
